This is an account of results in patent publication US4959359A, “Phenyl-thiazepinones as calcium regulating agents” (Hoffmann-La Roche Inc., priority 1989, dated 1990).

By inhibition is commonly meant the drop in the measured response relative to a control, in per cent.

Structures can show the parent of a compound that is named as a salt.

One experiment has as its system isolated rat aortic strips. Nature of the experiment: Contraction of rat aortic strips: inhibition of Ca++-induced contracture (calcium channel blocking activity). Format: cell-based. The following applies: 15 minute exposure at 3×10^-7 M. As to the method: The calcium channel blocking activity of compounds of formula I was determined by measuring the effect of compounds of formula I on isolated rat aortic strips.
Aortas were excised from rats, placed in Krebs-Henseleit solution, modified so as to be calcium free, with a depolarized level of potassium (45 mM), and 0.02 mM EDTA. The aorta was then helically cut into a strip about 2 mm wide. This strip was then divided into four equal segments about 15 mm in length, which were hung in isolated tissue chambers, attached to the appropriate tranducers and subjected to 500 mg basal tension. After a period of stabilization under these conditions, calcium was introduced into the bath and the tissues contracted in a concentration dependent manner.
When no calcium is available in the bathing media, and the potential dependent calcium channels are opened by the high potassium level, contractility is dependent on the level of calcium introduced into the bath. By adding increments of calcium into the bath, a reproducible concentration-dependent contracture can be obtained. Treatment with a calcium channel blocker, such as diltiazem, or a compound of the invention results in an inhibition of this contractile response.
Each number in the table below was derived by first adding calcium alone to tissue and measuring contracture, and then adding calcium to tissue that had been exposed to 3×10^-7 M of the compound to be tested and measuring contracture. The number for untreated controls was derived by measuring contracture for two runs where calcium alone was added.
A compound tested was placed in the bath at 3×10^-7 M for 15 minutes prior to, and during the acquisition of the concentration-dependent curve to calcium for that particular compound. The inhibition in contractile response at 2 mMCa++ was measured as a per cent inhibition as compared to the control. The effects on the 2 mM Ca++ contracture are as follows:
That is, compound A inhibited almost three quarters of the contracture observed for the control at 2 mM Ca++. As used above, compounds A, B, C, and D are as follows: […]
On to `COc1ccc([C@@H]2Sc3ccccc3N(CCN(C)C)C(=O)[C@@H]2OC(C)=O)cc1` [Diltiazem, reference compound], for which the “responsiveness to 2 mM Ca++” value is given as “marked reduction in responsiveness”.

The same experiment, now with this note: Rattus norvegicus, read-out: % Inhibition (contractile response at 2 mM Ca++ as compared to the control), heading: % Inhibition, 3×10^-7 M, 15 minutes prior to and during the calcium curve, depolarizing K+ 45 mM, diltiazem n = 10, A-D n = 1.
As to `COc1ccc([C@H]2SC(c3ccccc3)=C(C)N(CCN(C)C)C(=O)[C@H]2OC(C)=O)cc1` (racemic) [Compound A, cis-rac.-6-(acetyloxy)-6,7-dihydro-7-(4-methoxyphenyl)-3-methyl-4-[2-(dimethylamino)ethyl]-2-phenyl-1,4-thiazepin-5(4H)-one (E)-2-butenedioate], the inhibition at 0.3 µM was found to be 73.4%.

Take `COc1ccc([C@@H]2SC(c3ccccc3)=C(C)N(CCN(C)C)C(=O)[C@H]2OC(C)=O)cc1` (relative stereo) [D, trans-rac.-6-(acetyloxy)6,7-dihydro-7-(4-methoxyphenyl)-3-methyl-4-[2-dimethylamino)ethyl]-2-phenyl-1,4-thiazepin-5(4H)-one hydrochloride]: the inhibition at 0.3 µM stood at 13.4%.

Turning to `COc1ccc([C@H]2SC(c3ccccc3)=C(C)N(CCN(C)C)C(=O)[C@H]2OC(C)=O)cc1` [C, (-)-cis-6-(acetyloxy)-6,7-dihydro-7-(4-methoxyphenyl)-3-methyl-4-[2-dimethylamino)ethyl]-2-phenyl-1,4-thiazepin-5(4H)-one [R-(R*,R*)]-2,3-dihydroxybutanedioic acid sesquihydrate], the inhibition at 0.3 µM is 3.8%.

For `COc1ccc([C@@H]2SC(c3ccccc3)=C(C)N(CCN(C)C)C(=O)[C@@H]2OC(C)=O)cc1` [Compound B, (+)-cis-6-(acetyloxy)-6,7-dihydro-7-(4-methoxyphenyl)-3-methyl-4-[2-dimethylamino)ethyl]-2-phenyl-1,4-thiazepin-5(4H)-one [S-(R*,R*)]-2,3-dihydroxybutanedioic acid hydrate], the inhibition at 0.3 µM turned out to be 88.3%.

With `COc1ccc([C@@H]2Sc3ccccc3N(CCN(C)C)C(=O)[C@@H]2OC(C)=O)cc1` [Diltiazem, reference compound], the inhibition at 0.3 µM was determined as 71.1%.
